According to US9663439B2, “Aildenafil citrate crystal form O, preparation method and use thereof” (priority 2010, dated 2017):
Counter-ions that a name gives are not always drawn.

Columns and labels:
castrated mice = test: Determination for sexual function of castrated mice; type: in vivo, Kunming strain mouse; conditions: 15 mg/kg^−1, ig, 60 min after feeding the drug
From the text: Pharmacodynamic study: determination for sexual function of castrated mice 60 Kunming strain mouse (feeding 60 mouse with 18 g to 22 g weight in the same period) are randomly divided into 6 groups, each 10 mouse per group, wherein, 5 groups of mouse are implemented with bilateral orchidectomy under ether anesthesia state to have castration treatment, and the rest one group of mouse are only implemented with surgical separation, without removing the testicles, which can be taken as a sham operation control group. Each group of mouse are fed in cage, and are tested after 3 d. The sham operation control group and the model control group are fed with 0.5% CMC, […] crystal form O, the positive control group is fed with 6 mg·kg^−1 of Sildenafil; all are ig delivery modes, and the dose volumes are all 10 ml·kg^−1. Putting the single male mice in the cage 60 min after feeding the drug, and adding one female mice in each cage, recording the time that the male mice firstly catches the female mice since the female mice is put in the cage (namely, the capture incubation period), and recording the back-climbing times of the male mice within 30 min.

[1] = Influencing factor test (high temperature, high humidity, illumination); type: physicochemical
[2] = High-temperature test (first line; 60+/−2° C.), 0 month
[3] = High-temperature test (first line; 60+/−2° C.), 0.5 month
[4] = High-temperature test (first line; 60+/−2° C.), 1 month
[5] = High-temperature test (second line so named), 0 month
[6] = High-temperature test (second line so named), 0.5 month
[7] = High-temperature test (second line so named), 1 month
[8] = Illumination test (4500 lx+/−500 lx), 0 month
[9] = Illumination test (4500 lx+/−500 lx), 0.5 month
[10] = Illumination test (4500 lx+/−500 lx), 1 month
[11] = high light (4500 lx+/−500 lx), high temperature (60+/−2° C.), high humidity (RH 92.5%), 0 to 1 month

For CCCc1nn(C)c2c(=O)[nH]c(-c3cc(S(=O)(=O)N4C[C@@H](C)N[C@@H](C)C4)ccc3OCC)nc12 [Aildenafil citrate crystal form O], the “capture incubation period shortened” value (castrated mice) was 201%, the capture times increased (castrated mice; within 30 min) was 4.4 times and the Appearance [1, 2] was “White”. For the same molecule, the “Contents (HPLC area normalization method)” value [1, 2] was 99.96%, the Related articles [1, 2] was 0.04% and the Appearance [1, 3] was “White”. The “Contents (HPLC area normalization method)” value [1, 3] was 99.96%, the Infrared absorption spectrum [1, 3] was “Unchanged” and the PXRD [1, 3] was “Unchanged”. The Related articles [1, 3] was 0.04%, the Appearance [1, 4] was “White” and the “Contents (HPLC area normalization method)” value [1, 4] was 99.95%. For the same molecule, the Infrared absorption spectrum [1, 4] was “Unchanged”, the PXRD [1, 4] was “Unchanged” and the Related articles [1, 4] was 0.04%. For the same molecule, the Appearance [1, 5] was “White”, the “Contents (HPLC area normalization method)” value [1, 5] was 99.96% and the Related articles [1, 5] was 0.04%. The Appearance [1, 6] was “White”, the “Contents (HPLC area normalization method)” value [1, 6] was 99.95% and the Infrared absorption spectrum [1, 6] was “Unchanged”. The PXRD [1, 6] was “Unchanged”, the Related articles [1, 6] was 0.04% and the Appearance [1, 7] was “White”. The “Contents (HPLC area normalization method)” value [1, 7] was 99.96%, the Infrared absorption spectrum [1, 7] was “Unchanged” and the PXRD [1, 7] was “Unchanged”. For the same molecule, the Related articles [1, 7] was 0.05%, the Appearance [1, 8] was “White” and the “Contents (HPLC area normalization method)” value [1, 8] was 99.96%. For the same molecule, the Related articles [1, 8] was 0.04%, the Appearance [1, 9] was “White” and the “Contents (HPLC area normalization method)” value [1, 9] was 99.96%. For the same molecule, the Infrared absorption spectrum [1, 9] was “Unchanged”, the PXRD [1, 9] was “Unchanged” and the Related articles [1, 9] was 0.04%. For the same molecule, the Appearance [1, 10] was “White”, the “Contents (HPLC area normalization method)” value [1, 10] was 99.96% and the Infrared absorption spectrum [1, 10] was “Unchanged”. The PXRD [1, 10] was “Unchanged”, the Related articles [1, 10] was 0.04% and the “chemical stability (related articles and contents)” value [1, 11] was “excellent chemical stability”. For the same molecule, the “crystal form stability (appearance, PXRD, infrared absorption spectrum)” value [1, 11] was “stable”.
